Reference: US5153180A, “Fluorinated nucleosides and process for treating retrovirus infections therewith” (priority 1990, dated 1992)
Like-named read-outs stand apart in the source and are kept apart here.

Experiments:
[1] = Toxicity of continuous oral FTdR in mice
Method: (§1) Therefore we examined the toxicity and antiretroviral activity of FTdR in mice infected with Rauscher murine leukemia virus. Different doses of FTdR were applied to BalB/c Han strain of mice in plain water for 20 days beginning 2-8 hours after RLV infection.

[2] = test system: K-562 acute myeloic leukemia; assay: Inhibition of proliferation of K-562 cells; format: cell-based; conditions: Homo sapiens
Source text: (§2) Originally FTdR was developed as a cytostatic agent (P. Langen et al., Acta biol. med. Germ. 23, 759, 1969; and U.S. Pat. No. 3,775,397) and, therefore, its cytostatic efficacy has been examined in extensive prior studies. […] Ehrlich-mouse-ascites-carcinoma cells (EMAC) represents an exception to that finding, and this is probably connected to its high capability of phosphorylation of FTdR, which is 10 times higher than in human cells. The fast reversibility of the cytostatic effects on EMAC cells was regarded as a special property of this compound (P. Langen et al., Europ. J. Cancer. 14. 349, 1978). The antiproliferative effect of FTdR and FddUrd, and in comparison thereto of N3 -TdR were tested on human cell lines with regard to a possible use in humans. […] When FTdR is compared to N3 -TdR. The effects are very similar, however somewhat lower in each case for N3 -TdR than for FTdR.
(§3) CD50 : inhibitory dose required to reduce the cell number by 50%

[3] = test system: Rauscher murine leukemia virus (RLV); assay: Antiretroviral activity in mice infected with Rauscher murine leukemia virus; format: in vivo; conditions: for Reverse transcriptas serum / mean spleen weight: RLV +; for Reverse transcriptas serum: 100% = 66000 dpm, treatment discontinued 12 hours before
Method: as §1

[4] = in vitro; conditions: human, mt-4 cells
Method: (§4) Under in vitro conditions immortalized T-lymphocytes can be killed within few days by the cytopathic effect of HIV. […] For this purpose about 20,000 MT-4 cells (Harada et al. Science 229, 563 (1985)) Were infected with HIV (titer: 0.04 m.o.i.) and incubated in the presence or absence of varying concentrations of compounds according to formula I, with 10% fetal calf serum (FCS) in 200 μl RPMI medium. After 6 days of incubation the viable cells were counted that were excluded from trypan blue staining.

[5] = test system: MT4; assay: Intracellular phosphorylation of 3H-FTdR in MT4 cells; format: in vitro ADME; conditions: 1/um 3H-FTdR, within 24 hours, Human MT4
Method: (§5) The critical factor for 3'-fluoro-substituted deoxynucleosides to reach a high intracellular efficiency is their ability to be phosphorylated in situ in the infected cells. […] By comparison, the phosphorylation of 50 μm N3 -TdR by HTLV-IIIB -infected H9 cells to the triphosphate during a 24-hour incubation has been reported to reach only 0.9 pmoles/10^6 cells and to be accompanied by an extreme accumulation of the monophosphate of N3 -TdR (460 pmoles/10^6 cells), reflecting a strong inhibition of the dTMP-kinase (Furman et al., Proc. Natl. Acad. Sci. U.S.A. 83 8333 (1986)) and entailing considerable alterations of the deoxynucleoside triphosphate substrate pools (Furman et al., loc. cit.) which affect cellular DNA synthesis.
(§6) Synthesis of nucleotides from 1/um^3 H-FTdR (tritium labeled)
(§7) in cells of various species within 24 hours.

[6] = test system: HIV; assay: Inhibition of the cytopathic effect of HIV on MT-4 cells; format: cell-based; conditions: for EC50: Human immunodeficiency virus 1, MT4, 144 h
Method: as §4

[7] = test system: K-37 immortalized T-cells; assay: Inhibition of proliferation of K-37 cells; format: cell-based; conditions: Homo sapiens, T-cell
Source text: as §2, §3

[8] = biological target: T1, thymidine-phosphorylase from human spleen (Homo sapiens, UniProt P19971); assay: Phosphorolytic cleavage by thymidine-phosphorylase; format: in vitro ADME
T1 construct: thymidine-phosphorylase from human spleen; from tissue; host or cells: human spleen
T1 sequence (P19971 11-482): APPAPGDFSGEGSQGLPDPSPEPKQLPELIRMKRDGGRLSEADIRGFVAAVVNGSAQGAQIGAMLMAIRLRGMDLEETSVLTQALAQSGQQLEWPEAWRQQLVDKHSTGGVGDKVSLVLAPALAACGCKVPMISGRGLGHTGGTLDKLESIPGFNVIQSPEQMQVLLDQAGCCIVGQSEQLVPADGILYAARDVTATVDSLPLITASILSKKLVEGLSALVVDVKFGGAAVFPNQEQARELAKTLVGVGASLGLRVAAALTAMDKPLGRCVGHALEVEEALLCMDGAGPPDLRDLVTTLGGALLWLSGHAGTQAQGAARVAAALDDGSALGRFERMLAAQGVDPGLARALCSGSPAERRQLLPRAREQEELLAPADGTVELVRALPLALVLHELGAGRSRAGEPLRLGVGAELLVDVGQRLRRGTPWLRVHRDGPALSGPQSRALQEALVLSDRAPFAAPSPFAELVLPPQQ
Source text: Therefore FTdR, FddBrUrd and FddFUrd were investigated for their ability to be cleaved by thymidine-phosphorylase from human spleen.

[9] = test system: Ehrlich-mouse-ascites-carcinoma cells (EMAC); conditions: cited from earlier work
[10] = test system: 9 different animal tumors; conditions: NCI program; cited from earlier work
[11] = test system: H9 immortalized T-cells; assay: Inhibition of proliferation of H9 cells; format: cell-based; conditions: Homo sapiens, T-cell
Source text: as §2, §3

[12] = test system: NRK-49F; assay: Intracellular phosphorylation of 3H-FTdR in NRK-49F cells; format: in vitro ADME; conditions: 1/um 3H-FTdR, within 24 hours, Rat NRK-49F
Method: as §5, §6, §7

[13] = test system: CEM (LAV-II); assay: Intracellular phosphorylation of 3H-FTdR in CEM (LAV-II) cells; format: in vitro ADME; conditions: 1/um 3H-FTdR, within 24 hours, Human CEM (LAV-II)
Method: as §5, §6, §7

[14] = test system: H9 (HTLV-IIIB); assay: Intracellular phosphorylation of 3H-FTdR in H9 (HTLV-IIIB) cells; format: in vitro ADME; conditions: 1/um 3H-FTdR, within 24 hours, Human H9 (HTLV-IIIB)
Method: as §5, §6, §7

[15] = test system: REH acute lymphatic leukemia; assay: Inhibition of proliferation of REH cells; format: cell-based; conditions: Homo sapiens
Source text: as §2, §3

[16] = test system: 3T3; assay: Intracellular phosphorylation of 3H-FTdR in 3T3 cells; format: in vitro ADME; conditions: 1/um 3H-FTdR, within 24 hours, Mouse 3T3
Method: as §5, §6, §7

[17] = AIDS patients treated; cited from earlier work
[18] = test system: HTLV-IIIB -infected H9 cells; conditions: 50 μm N3 -TdR, 24-hour incubation; cited from earlier work
[19] = 6.5 mg/kg/day in drinking water for 20 days, RLV +
[20] = 6.5 mg/kg/day in drinking water for 20 days, RLV -
[21] = 69.0 mg/kg/day in drinking water for 20 days, RLV +
[22] = 69.0 mg/kg/day in drinking water for 20 days, RLV -
[23] = oral 1.8 mg/kg/day, given for 24 days

Compound: Cc1cn([C@H]2C[C@H](F)[C@@H](CO)O2)c(=O)[nH]c1=O [FTdR, 2',3'-dideoxy-3'-fluorothymidine]
- signs of anemia and depression of white cell counts ([1]; 6.5 mg/kg/day): failed to produce signs of anemia and depression of white cell counts
- Hemoglobin [1, 19]: 8.1 mmol/L
- changes of body weight [1, 19]: 0%
- Hemoglobin [1, 20]: 8.9 mmol/L
- changes of body weight [1, 20]: +1%
- mean spleen weight [1, 20]: 125 mg
- toxic side effects (hematological parameters) ([1]; 69.0 mg/kg/day): toxic side effects are associated with this concentration range
- Hemoglobin [1, 21]: 5.1 mmol/L
- changes of body weight [1, 21]: -10%
- Hemoglobin [1, 22]: 4.3 mmol/L
- changes of body weight [1, 22]: -12%
- mean spleen weight [1, 22]: 72 mg
- IC50 ([2]; K562, dose required to reduce the cell number by 50%, K-562, read-out: CD50 (the source's name)): 45 µM
- suppression of splenomegaly and viremia ([3]; 6.5 mg/kg/day): completely active in suppressing splenomegaly and viremia
- Reverse transcriptas serum ([3]; 6.5 mg/kg/day for 20 days): 0%
- mean spleen weight ([3]; 6.5 mg/kg/day in drinking water for 20 days): 192 mg
- splenomegaly and RLV-associated reverse transcriptase activity in the serum ([3]; 69.0 mg/kg/day): completely suppresses
- Reverse transcriptas serum ([3]; 69.0 mg/kg/day for 20 days): 0%
- mean spleen weight ([3]; 69.0 mg/kg/day in drinking water for 20 days): 86 mg
- development of RLV induced leukemia ([3]; 69.0 mg/kg/day, continuous application for 20 days): able to prevent the development of a leukemia
- suppression of serum reverse transcriptase activity [3, 23]: more than 70%
- suppression of splenomegaly [3, 23]: more than 50%
- CC50 at 144 h [4]: 1100 nM
- diphosphate (FdTDP) [5]: 1.6 pmoles/106 cells
- monophosphate (FdTMP) [5]: 9.9 pmoles/106 cells
- triphosphate (FdTTP) [5]: 5.6 pmoles/106 cells
- EC50 ([6]; read-out: ED50 (the source's name)): 3 nM
- antiviral activity of FTdR against N3 -TdR ([6]; cellular test, ratio of ED50): 5 times
- IC50 ([7]; dose required to reduce the cell number by 50%, K-37, read-out: CD50 (the source's name)): 260 µM
- metabolised at 3 h, 1000 µM [8]: 3 to 8%
- capability of phosphorylation of FTdR in EMAC versus human cells [9]: 10 times
- cytostatic effect [10]: only a weak cytostatic effect
- IC50 ([11]; dose required to reduce the cell number by 50%, H9, read-out: CD50 (the source's name)): 1000 µM
- diphosphate (FdTDP) [12]: 3.7 pmoles/106 cells
- monophosphate (FdTMP) [12]: 3.5 pmoles/106 cells
- triphosphate (FdTTP) [12]: 13.2 pmoles/106 cells
- diphosphate (FdTDP) [13]: 0.5 pmoles/106 cells
- monophosphate (FdTMP) [13]: 6.1 pmoles/106 cells
- triphosphate (FdTTP) [13]: 2.8 pmoles/106 cells
- diphosphate (FdTDP) [14]: 0.3 pmoles/106 cells
- monophosphate (FdTMP) [14]: 3.3 pmoles/106 cells
- triphosphate (FdTTP) [14]: 1.4 pmoles/106 cells
- IC50 ([15]; dose required to reduce the cell number by 50%, read-out: CD50 (the source's name)): 160 µM
- diphosphate (FdTDP) [16]: 2.2 pmoles/106 cells
- monophosphate (FdTMP) [16]: 0.38 pmoles/106 cells
- triphosphate (FdTTP) [16]: 16.3 pmoles/106 cells

Compound: Cc1cn([C@H]2C[C@H](N=[N+]=[N-])[C@@H](CO)O2)c(=O)[nH]c1=O [N3 -TdR, 3'-azido-2',3'-dideoxythymidine, reference compound]
- IC50 ([2]; K562, read-out: CD50): 50 µM
- patients requiring blood transfusions (toxic side effects on the bone marrow) [17]: about 50%
- EC50 ([6]; read-out: ED50): 16 nM
- IC50 ([7]; read-out: CD50): 500 µM
- accumulation of the monophosphate [18]: 460 pmoles/10^6 cells
- phosphorylation to the triphosphate [18]: 0.9 pmoles/10^6 cells
- IC50 ([11]; read-out: CD50): 800 µM
- IC50 ([15]; read-out: CD50): 220 µM
